For six compounds, Activity, EC50 and inhibition results are on record in ChEMBL document CHEMBL1146862, “Synthesis of trifluoromethylaryl diazirine and benzophenone derivatives of etomidate that are potent general anesthetics and effective photolabels for probing sites on ligand-gated ion channels” (J Med Chem, 2006).

Calls of active or inactive are those of the source. The rule behind the calls is not given here.

Assay [1] has as its target T1, GABA-A receptor; anion channel (Homo sapiens) (UniProt P14867+P47870+P18507+P28472+P48169+Q99928+Q9UN88+P34903+O00591+O14764+Q8N1C3+P18505+P78334+P47869+P31644+Q16445). Nature of the assay: Enhancement of [3H]flunitrazepam binding to cerebral cortex GABA-A receptor at 1 uM. The class given is tissue-based.
Assay [2] has as its system Xenopus sp. Put plainly: Anesthetic activity in Xenopus tadpole measured as loss of righting reflex. It counts as functional, organism-based.
Assay [3] addresses T2, GABA-A receptor; alpha-1/beta-2/gamma-2 (Homo sapiens) (UniProt P14867+P47870+P18507). Put plainly: Enhancement of current in Xenopus laevis oocytes expressing human GABA-Alpha1 receptor plus beta-2-gamma-2L upto 1 uM. To be noted: Oocyte. It counts as functional, cell-based.
Assay [4] concerns the target T3, Serotonin 3 (5-HT3) receptor (Homo sapiens) (UniProt P46098+A5X5Y0+O95264+Q70Z44+Q8WXA8). Nature of the assay: Inhibition of 5HT3 receptor at 0.7 uM. The class given is protein-complex assay.
The target of assay [5] is T1, GABA-A receptor; anion channel (Homo sapiens). Put plainly: Enhancement of [3H]flunitrazepam binding to cerebral cortex GABA-A receptor at >=0.3 uM. It counts as tissue-based.
The target is the same in assay [6]. Nature of the assay: Reduction of [3H]flunitrazepam binding to cerebral cortex GABA-A receptor at 100 uM relative to control. It counts as tissue-based. Also noted: scale not given: the % may be the effect or the level left.
In assay [7] the target is T3, Serotonin 3 (5-HT3) receptor (Homo sapiens). Nature of the assay: Inhibition of 5HT3 receptor at 2.2 uM. It counts as protein-complex assay.
Assay [8] addresses T4, Acetylcholine receptor subunit delta (Torpedo californica) (UniProt P02718).
T4 sequence (whole entry): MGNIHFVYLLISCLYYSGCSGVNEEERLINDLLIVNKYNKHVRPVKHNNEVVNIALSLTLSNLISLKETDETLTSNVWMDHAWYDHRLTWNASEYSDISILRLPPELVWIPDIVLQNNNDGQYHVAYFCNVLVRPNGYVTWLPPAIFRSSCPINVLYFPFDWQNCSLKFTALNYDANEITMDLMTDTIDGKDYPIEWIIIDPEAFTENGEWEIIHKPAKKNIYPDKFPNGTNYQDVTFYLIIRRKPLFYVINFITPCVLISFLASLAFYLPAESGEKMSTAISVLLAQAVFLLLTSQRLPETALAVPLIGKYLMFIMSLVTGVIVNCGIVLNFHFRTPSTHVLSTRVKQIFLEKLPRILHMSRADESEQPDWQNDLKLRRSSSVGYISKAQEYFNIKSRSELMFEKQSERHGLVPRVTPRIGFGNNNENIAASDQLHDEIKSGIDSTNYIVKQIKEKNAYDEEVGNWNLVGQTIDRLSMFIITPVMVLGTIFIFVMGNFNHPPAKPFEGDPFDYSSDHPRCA
Put plainly: Photolabeling of Torpedo californica delta nAChR in presence of agonist relative to in absence of agonist. To be noted: Tetronarce californica. It counts as functional.

The target of assay [9] is T3, Serotonin 3 (5-HT3) receptor (Homo sapiens). Nature of the assay: Inhibition of 5HT3 receptor at 2.3 uM. The class given is protein-complex assay.
The target of assay [10] is T1, GABA-A receptor; anion channel (Homo sapiens). Nature of the assay: Enhancement of [3H]flunitrazepam binding to cerebral cortex GABA-A receptor at >=1 uM. The class given is tissue-based.
Assay [11] deals with Acetylcholine receptor subunit alpha (Torpedo californica) (UniProt P02710). Put plainly: Photolabeling of Torpedo californica alpha nAChR in presence of agonist relative to in absence of agonist. The class given is functional. To be noted: Tetronarce californica.
Sequence of Acetylcholine receptor subunit alpha (Torpedo californica) (P02710 whole entry): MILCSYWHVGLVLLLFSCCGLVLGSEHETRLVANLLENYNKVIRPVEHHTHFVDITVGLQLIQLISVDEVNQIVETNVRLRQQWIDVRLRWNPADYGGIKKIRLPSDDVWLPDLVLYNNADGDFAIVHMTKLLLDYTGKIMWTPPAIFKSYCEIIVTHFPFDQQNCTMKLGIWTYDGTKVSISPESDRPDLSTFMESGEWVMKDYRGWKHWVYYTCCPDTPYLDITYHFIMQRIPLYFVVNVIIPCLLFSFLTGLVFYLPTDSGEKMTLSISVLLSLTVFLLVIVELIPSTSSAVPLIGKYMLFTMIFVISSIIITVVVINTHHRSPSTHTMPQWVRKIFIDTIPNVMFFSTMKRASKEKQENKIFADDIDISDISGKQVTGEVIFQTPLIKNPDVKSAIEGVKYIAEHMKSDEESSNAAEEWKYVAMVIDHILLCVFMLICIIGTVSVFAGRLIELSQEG
Assay [12] concerns the target T1, GABA-A receptor; anion channel (Homo sapiens). Put plainly: Enhancement of [3H]flunitrazepam binding to cerebral cortex GABA-A receptor at 0.1 uM. It counts as tissue-based.
For assay [13], the target named is T2, GABA-A receptor; alpha-1/beta-2/gamma-2 (Homo sapiens). Put plainly: Enhancement of current in Xenopus laevis oocytes expressing human GABA-Alpha1 receptor plus beta-2-gamma-2L upto 10 uM. The class given is functional, cell-based. To be noted: Oocyte.
The target in assay [14] is T3, Serotonin 3 (5-HT3) receptor (Homo sapiens). Put plainly: Inhibition of 5HT3 receptor at 0.22 uM. The class given is protein-complex assay.

Consider `C[C@H](c1ccccc1)n1cncc1C(=O)OCc1ccc(C2(C(F)(F)F)N=N2)cc1`, for which the result in assay [1] was Active. Further, the concentration for a half-maximal effect (EC50) in assay [2] turned out to be 700 nM. Besides, in [3], the outcome was inactive. Further, in [4], the inhibition was less than 10%.

On to `CC(c1ccccc1)n1cncc1C(=O)OCCC1(C)N=N1` (stereo not drawn) [AZIETOMIDATE], for which the outcome in assay [5] was Active. Besides, the Activity in assay [6] was determined as 115%. The compound also gave an EC50 in [2] of 2200 nM. In [7], this compound came in with an inhibition of 8%.

`C[N+](C)(C)CCOC(N)=O`: in [8], the Activity was 60%.

`CCOC(=O)c1cncn1[C@H](C)c1ccccc1` [ETOMIDATE] displayed an Activity in assay [6] of 78.5%. The same compound yielded a half-maximal effective concentration (EC50) in assay [2] of 2300 nM. Also, the inhibition in [9] was found to be 11%. Besides, the outcome in assay [10] was Active.

As to `CCCC(C(=O)OCCN(CC)CC)(c1ccccc1)c1ccccc1`, the Activity in assay [11] is 70%.

In the case of `C[C@H](c1ccccc1)n1cncc1C(=O)OCc1ccc(C(=O)c2ccccc2)cc1`, the outcome in assay [12] was Active. Further, the half-maximal effective concentration (EC50) in assay [2] is 220 nM. Besides, the result in assay [13] was inactive. In assay [14], this compound returned an inhibition of less than 10%.
